The results in this text go back to paper PMC12466757, “1,5-Diarylidene-4-Piperidones as Promising Antifungal Candidates Against Cryptococcus neoformans” (Antibiotics, 2025).

Values after ≈ are worked out from the molar mass of the structure shown.

For data set [1], the system named is Cryptococcus neoformans (DSM11959). The experiment in a line: MIC assay against C. neoformans. Conditions: Cryptococcus neoformans, DSM11959, C. neoformans DSM 11959; lowest concentration totally inhibiting growth; 35 °C, 24–48 h. The class given is cell-based.
A short description of data set [2]: in vitro. Conditions: human.
Data set [3] is described as follows: in vitro. The following applies: human. The source holds these as a separate data set.
Data set [4] in a line: in vitro. Conditions: human, Caco-2.
Data set [5] can be described thus: in vitro. The following applies: human. This is another data set of the same source.
The nature of data set [6]: in vitro. Conditions: human. The source holds these as a separate data set.
Data set [7] in a line: in vitro. The following applies: human. The source holds these as a separate data set.
The test system of data set [8] is Acinetobacter baumannii (DSM 30007). The experiment in a line: Antibacterial liquid MIC determination, A. baumannii. It is filed as cell-based. Conditions: DSM30007, Gram-negative.
The test system of data set [9] is Enterobacter cloacae (DSM 30054). The experiment in a line: Antibacterial liquid MIC determination, E. cloacae. It is filed as cell-based. The following applies: DSM30054, Gram-negative.
For data set [10], the system named is Candida albicans (DSM 10697). The experiment in a line: MIC assay, pathogenic yeast C. albicans. The class given is cell-based. Conditions: DSM10697, 35 °C, 24–48 h.
Data set [11] concerns Candida auris (DSM 21092). The experiment in a line: MIC assay, pathogenic yeast C. auris. It is filed as cell-based. Conditions: Candidozyma auris, DSM21092, 35 °C, 24–48 h.
Data set [12] deals with Candida glabrata (DSM 11226). The experiment in a line: MIC assay, pathogenic yeast C. glabrata. The class given is cell-based. The following applies: Nakaseomyces glabratus, DSM11226, 35 °C, 24–48 h.
Data set [13] deals with Candida tropicalis (DSM 9419). The experiment in a line: MIC assay, pathogenic yeast C. tropicalis. It is filed as cell-based. The following applies: DSM9419, 35 °C, 24–48 h.
For data set [14], the system named is Aspergillus flavus (DSM 1959). The experiment in a line: MIC assay, filamentous fungus A. flavus. Conditions: DSM1959, DSM 1959, plant pathogen, 25 °C, 48–72 h. It is filed as cell-based.
Data set [15] concerns A. fumigatus (DSM 819). The experiment in a line: MIC assay, filamentous fungus A. fumigatus. The following applies: Aspergillus fumigatus, DSM819; DSM 819, human pathogen; 35 °C, 24–48 h. It is filed as cell-based.
In data set [16] the test system is Colletotrichum graminicola (DSM 63127). The experiment in a line: MIC assay, filamentous fungus C. graminicola. The following applies: DSM63127, DSM 63127, plant pathogen, 25 °C, 48–72 h. The class given is cell-based.
The subject of data set [17] is Fusarium graminearum (DSM 1095). The experiment in a line: microbe, parasite or virus in culture. It is filed as cell-based. The following applies: DSM1095, read-out: MIC F. graminearum.
Data set [18] concerns Magnaporthe oryzae. The experiment in a line: microbe, parasite or virus in culture. The class given is cell-based. Conditions: Pyricularia oryzae, read-out: MIC M. oryzae.
The subject of data set [19] is Microdochium bolleyi (DSM 62073). The experiment in a line: MIC assay, filamentous fungus M. bolleyi. It is filed as cell-based. The following applies: DSM62073, DSM 62073, plant pathogen, 25 °C, 48–72 h.
In data set [20] the test system is Penicillium verrucosum (DSM 12639). The experiment in a line: MIC assay, filamentous fungus P. verrucosum. It is filed as cell-based. The following applies: DSM12639, DSM 12639, plant pathogen, 25 °C, 48–72 h.
Data set [21] has as its system Trichophyton rubrum (DSM16111). The experiment in a line: MIC assay, filamentous fungus T. rubrum. It is filed as cell-based. The following applies: DSM16111, human pathogen, 35 °C, 24–48 h.
The subject of data set [22] is various human cells, i.e., A498, BEAS-2B, Caco-2, HaCaT, and HepG2.
The nature of data set [23]: Cytotoxicity, resazurin cell viability assay, A498. The following applies: human, A498 kidney cells. In general terms: Resazurin is reduced to fluorescent resorufin, in cell work by metabolically active cells.
Data set [24] can be described thus: Cytotoxicity, resazurin cell viability assay, HaCaT. The following applies: human, HaCaT skin cells.
The nature of data set [25]: Cytotoxicity, resazurin cell viability assay, HepG2. The following applies: human, HepG2 liver cells.
Data set [26] can be described thus: Cytotoxicity, resazurin cell viability assay, Caco-2. Conditions: human.
A short description of data set [27]: Cytotoxicity, resazurin cell viability assay, BEAS-2B. Conditions: human, BEAS-2B airway epithelial cells.

Compound `CCCCOc1ccc(/C=C2\CN(C3CC3)C/C(=C\c3ccc(OCCCC)cc3OCCCC)C2=O)c(OCCCC)c1` [4h] displayed an MIC in data set [1] of 250 µM (≈ 151 µg/mL). Also, the CC50 at 48 h in data set [2], in data set [3], in [4], in data set [5], in data set [6] and in [7] was more than 1000 µM throughout.

Consider `CCN1C/C(=C\c2ccc[nH]2)C(=O)/C(=C/c2ccc[nH]2)C1` [2k], for which the MIC in [1], in data set [8] and in data set [9] was 250 µM (≈ 70.3 µg/mL) throughout.

On to `OC(Cn1cncn1)(Cn1cncn1)c1ccc(F)cc1F` [Fluconazole, reference compound], for which the MIC in data set [1] was 25 µM (≈ 7.66 µg/mL); in data set [10], 6.25 µM (≈ 1.91 µg/mL); in [11], 500 µM (≈ 153 µg/mL); in data set [12] it was 250 µM (≈ 76.6 µg/mL); in data set [13], 1000 µM (≈ 306 µg/mL); in data set [14], more than 1000 µM. In addition, the MIC in data set [15] was more than 1000 µM; in data set [16], 50 µM (≈ 15.3 µg/mL); in data set [17], more than 1000 µM; in [18], 12.5 µM (≈ 3.83 µg/mL); in data set [19], more than 1000 µM; in data set [20] it was more than 1000 µM. For the same compound, the MIC in data set [21] is more than 1000 µM. In addition, the “CC50 (range depending on the cell model)” value in data set [22] is given as 841.2 to >1000. For the same compound, the CC50 at 48 h in data set [23] is 994 µM; in [24] it was 841 µM; in [25], more than 1000 µM; in [26], 977 µM; in data set [27], 942 µM.
